We go through 80 molecules from the METLIN SMRT retention time set (Domingo-Almenara et al. 2019).

The data set is described as follows: gradient 5% acetonitrile 3 min, to 50% in 2 min, to 85% in 15 min, held 3 min, 100 µL/min. Particulars: column: Zorbax Extend-C18 2.1 x 50 mm; eluents: water / acetonitrile, 0.1% formic acid. In a few lines: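 The system's dead and dwell volumes were 40 μL and 900 μL, with a Zorbax Extend-C18 column (2.1 × 50 mm, 1.8 μm) run at 100 μL/min in water and acetonitrile containing 0.1% formic acid each. Pure standards were analyzed in mixtures of ~100 molecules by HPLC–quadrupole time-of-flight mass spectrometry in positive and negative ionization mode. Retention time was assigned from computationally picked, manually inspected adduct peaks.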
`CCc1noc(NC(C)=O)c1-c1ccc(OC)c(S(=O)(=O)Nc2cc(C)ccc2OC)c1` came in with an RP-LC retention time of 854 s.

Molecule `CCN1C(=O)c2cccnc2Sc2cc(CNC(=O)COc3cccc(C)c3)ccc21` yielded an RP-LC retention time of 846 s.

In turn, `c1ccc(OCCSc2nc3ccccc3[nH]2)cc1` registered an RP-LC retention time of 625 s.

On to `CCOC(=O)c1c(NCc2ccc(C)cc2)c2ccc(Cl)cc2[nH]c1=O`, for which the RP-LC retention time was determined as 922 s.

`Cc1ccc(CNC(=O)Nc2ccc(-c3nc(-c4ccccc4)co3)cc2)cc1` returned an RP-LC retention time of 1100 s.

In the case of `Cc1nc2nc(C)c(CCC(=O)N3CCC(Cc4ccccc4)CC3)c(C)n2n1`, the RP-LC retention time was 804 s.

The molecule `O=C(Nc1cccc(F)c1)N1CCCC1c1nc(-c2ccc(F)cc2F)no1` (stereo not given) gave an RP-LC retention time of 998 s.

`COc1cc(NC(=O)CN2C(=O)CC(c3ccccc3)=Nc3ccccc32)cc(OC)c1` displayed an RP-LC retention time of 973 s.

For `Cc1ccc(C)c(NC(=O)N2CCCC(C)(C(=O)NCc3ccc(F)cc3)C2)c1` (stereo not given), the RP-LC retention time amounted to 963 s.

`COc1ccc(C(=O)N2C[C@H](c3nc(-c4ccccc4)no3)[C@@H](C)C2)cc1F` displayed an RP-LC retention time of 991 s.

Take `O=C(CN1C(=O)C(C(=O)N2CCCC2)Sc2ccccc21)N1CC=C(c2ccccc2)CC1` (stereo not given): the RP-LC retention time was found to be 897 s.

For `Cc1ccccc1NS(=O)(=O)c1cc2[nH]c(=O)[nH]c2cc1C`, the RP-LC retention time amounted to 679 s.

`O=C(c1ccc[nH]1)N1CCC2(CC1)NC(=O)N(Cc1ccc(Cl)cc1)C2=O` showed an RP-LC retention time of 761 s.

`O=C(O)CCC(=O)Nc1sc2c(c1C(=O)Nc1ccccc1)CCC2` displayed an RP-LC retention time of 902 s.

`CCOC(=O)c1nc(NCc2ccc(F)cc2)c2ccccc2n1` registered an RP-LC retention time of 931 s.

The molecule `Cc1nnc2ccc(NC(=O)Nc3ccc(F)cc3)cn12` showed an RP-LC retention time of 660 s.

Molecule `CC(NC(=O)Cn1cnc(-c2noc(-c3ccncc3)n2)c1)c1ccccc1` (stereo not given) registered an RP-LC retention time of 678 s.

Molecule `CCOC(=O)C1CCN(c2c(C#N)cnc3ccc(Cl)cc23)CC1` came in with an RP-LC retention time of 935 s.

As for `CC(=O)Nc1ccc(-n2cnc(C(=O)N3CCN(C4CCCCC4)CC3)c2)nc1`, the RP-LC retention time is 566 s.

In the case of `COc1ccc(CN2CC(F)(F)C[C@H]2c2nnc(-c3cnccn3)o2)cc1C`, the RP-LC retention time was found to be 912 s.

Molecule `CN(C)c1ccc2c(c1)CN(C(=O)C1CC1)CCO2` gave an RP-LC retention time of 574 s.

For `O=C(Nc1cccnc1Cl)C1CCCN(c2ncnc3c2nc2n3CCCCC2)C1` (stereo not given), the RP-LC retention time turned out to be 717 s.

Molecule `COc1ccc(NC(=O)NC(C)C(=O)N2CCc3ccccc32)cc1OC` (stereo not given) registered an RP-LC retention time of 742 s.

`O=C(Nc1ccccc1)C1CCCN(c2nnc3ccccn23)C1` (stereo not given) registered an RP-LC retention time of 598 s.

The molecule `O=S(=O)(c1ccc2nc(N3CCN(C4CCCCC4)CC3)ccc2c1)N1CCCCC1` registered an RP-LC retention time of 734 s.

Molecule `CCCc1cc(C2CCCN2C(=O)Cc2ccc(OC)cc2)no1` (stereo not given) showed an RP-LC retention time of 909 s.

`COc1ccc(NC(=O)C2CCCN(S(=O)(=O)c3c[nH]c(C(=O)N4CCCC4)c3)C2)cc1` (stereo not given) returned an RP-LC retention time of 732 s.

Regarding `O=C(C1CCOC1)N1CCCn2nc(-c3cccs3)cc2C1` (stereo not given), the RP-LC retention time came out at 678 s.

Molecule `O=C(NCc1ccc(Br)cc1)C1CCCN(c2nccnc2Oc2ccccc2)C1` (stereo not given) gave an RP-LC retention time of 1050 s.

For `Cn1nc(-c2nnc(-c3ccc(F)cc3)o2)c2c1CCN(C(=O)Nc1ccccc1Cl)C2`, the RP-LC retention time turned out to be 892 s.

Regarding `Cc1cc(C)n(-c2nc(C)c(C(=O)Nc3ccc(N(C)C)cc3)s2)n1`, the RP-LC retention time was determined as 737 s.

Molecule `CC(C)CC(=O)Nc1ccc(S(=O)(=O)N2CCCC2c2nc(-c3ccc(F)cc3)no2)cc1` (stereo not given) displayed an RP-LC retention time of 1080 s.

`O=C1CCC(C(=O)N2CCC3(CCC3O)CC2)=NN1` (stereo not given) had an RP-LC retention time of 575 s.

The molecule `COc1ccc(OC)c(NS(=O)(=O)c2cc3c4c(c2)CCC(=O)N4CCC3)c1` came in with an RP-LC retention time of 804 s.

In the case of `COc1ccccc1NC(=O)CN1C(=O)NC2(CCC(C)CC2)C1=O` (stereo not given), the RP-LC retention time came out at 803 s.

Take `O=C1NCCCn2cc(S(=O)(=O)Nc3cccc(F)c3)cc21`: the RP-LC retention time turned out to be 663 s.

Take `Cn1c(C(=O)NCCc2c[nH]c3ccccc23)cc2sccc21`: the RP-LC retention time came to 916 s.

For `CCC1CCCCN1C(=O)c1cnc2nc(C)ccc2c1Nc1ccc(C(=O)OC)cc1` (stereo not given), the RP-LC retention time amounted to 681 s.

For `Cc1ccc(NC(=O)N2CCN(c3cnn4c(C)nnc4c3)CC2)cc1`, the RP-LC retention time is 563 s.

Molecule `CCOc1ccc(NC(=O)C2CCCN2S(=O)(=O)c2ccc(OCC)cc2)cc1` (stereo not given) had an RP-LC retention time of 967 s.

Molecule `O=C1C(N2CCN(S(=O)(=O)c3cccs3)CC2)CCN1Cc1cccnc1` (stereo not given) had an RP-LC retention time of 536 s.

Regarding `Cc1nc2cc(-c3noc(-c4ccccc4Br)n3)ccc2o1`, the RP-LC retention time was 1140 s.

As for `O=C(NCc1ccc2c(c1)OCO2)c1c(O)c2cccnc2[nH]c1=O`, the RP-LC retention time was found to be 889 s.

Molecule `Cc1ccc(-c2cc(C(=O)N3CCN(C)CC3)n(C)c2)cc1` yielded an RP-LC retention time of 644 s.

With `O=C(NC1CC1)c1ccc(-c2ccc(N3CCCCC3)nc2)cc1`, the RP-LC retention time amounted to 613 s.

The molecule `Cc1ccc(NC(=O)N2C[C@@H](F)C[C@H]2C(=O)N2CCCCC2)c(Cl)c1` yielded an RP-LC retention time of 779 s.

`Cc1cc(C)n2c(Nc3ccc(C(C)C)cc3)c(-c3ccccc3)nc2n1` yielded an RP-LC retention time of 828 s.

The molecule `CNC(=O)c1cc(C)nc2ccc(F)cc12` came in with an RP-LC retention time of 580 s.

Molecule `Nc1cc(C2CCN(S(=O)(=O)c3ccc(F)cc3F)CC2)no1` had an RP-LC retention time of 780 s.

Consider `COC(=O)c1[nH]c(C)c(C(=O)C(C)N(C(=O)c2ccccc2)C2CCCCC2)c1C` (stereo not given), for which the RP-LC retention time amounted to 941 s.

Turning to `O=C1CCN(C(=O)c2cccs2)CCCC(CO)CCN1` (stereo not given), the RP-LC retention time is 581 s.

In the case of `COC(=O)C1=CN(C)c2cc(N3CCC(Cc4ccccc4)CC3)c(F)cc2S1(=O)=O`, the RP-LC retention time is 1100 s.

For the molecule `NC(=O)c1c(NC(=O)C2CCCN(C(=O)C3CCCC3)C2)sc2c1CCCC2` (stereo not given), the RP-LC retention time came to 866 s.

Turning to `Cn1nccc1C(=O)NCc1ccc(-c2nc(-c3cccs3)no2)s1`, the RP-LC retention time came out at 858 s.

The molecule `CN(C)CCNC(=O)c1ccc2c(c1)N(Cc1ccccc1)CCS2` had an RP-LC retention time of 689 s.

`CCn1c(=O)oc2cc(-c3noc(-c4ccc(OC)c(OC)c4)n3)ccc21` returned an RP-LC retention time of 990 s.

In turn, `CCOC(=O)N1CCN(C(=O)CCNc2c(-c3cccc(F)c3)nc3cnccn23)CC1` yielded an RP-LC retention time of 689 s.

`COc1cccc(C(=O)Nc2c3c(nn2C(C)(C)C)CS(=O)(=O)C3)c1` had an RP-LC retention time of 752 s.

The molecule `Cn1nc(-c2nnc(-c3ccc(F)cc3)o2)c2c1CCN(S(=O)(=O)Cc1ccccc1Cl)C2` showed an RP-LC retention time of 970 s.

The molecule `CS(=O)(=O)Nc1ccc(C2(C(=O)NCc3ccc(F)cc3Cl)CCC2)cc1` had an RP-LC retention time of 847 s.

Turning to `O=C(COCc1nnc(C(=O)Nc2cccc(Cl)c2)s1)NCCc1c[nH]c2ccccc12`, the RP-LC retention time is 930 s.

`O=C(N[C@H]1C[C@@H]2C[C@H]1CN2C(=O)c1cc2c(s1)CCCC2)c1cccnc1` had an RP-LC retention time of 731 s.

For the molecule `CCC(=O)N1CCc2cc(N3CC(C(=O)NCc4ccc(F)cc4F)CC3=O)ccc21` (stereo not given), the RP-LC retention time turned out to be 755 s.

As for `CC(C)N(Cc1ccccc1)C(=O)CN1C(=O)CCc2cc(S(=O)(=O)N3CCCCC3C)ccc21` (stereo not given), the RP-LC retention time turned out to be 1060 s.

In turn, `Cc1ccc(-c2ccc(N3CCCC(C(=O)NC4CCCC4)C3)nn2)cc1` (stereo not given) had an RP-LC retention time of 696 s.

For `CCCCN(CC)C(=O)c1cc2c(=O)oc3ccccc3c2n1C`, the RP-LC retention time is 910 s.

Molecule `Cc1cc(Br)ccc1NC(=O)Cc1csc(Nc2ccc(Cl)cn2)n1` gave an RP-LC retention time of 1040 s.

`COCC(=O)Nc1ccc2c(c1)CN(S(C)(=O)=O)CCO2` returned an RP-LC retention time of 641 s.

Molecule `O=C(Nc1cccnc1)C1CCCN(c2nnc3ccc(Cl)cn23)C1` (stereo not given) yielded an RP-LC retention time of 567 s.

`COC(=O)C1=C(C)N(C2CCCCC2)C(=O)C1(NC(=O)c1ccccc1OC)C(F)(F)F` (stereo not given) showed an RP-LC retention time of 1090 s.

Molecule `Cc1cccc(N2CCN(CC(O)COc3ccccc3Cl)CC2)c1` (stereo not given) gave an RP-LC retention time of 828 s.

Molecule `COc1ccc(-c2csc(Nc3ccc(S(=O)(=O)Nc4cc(C)on4)cc3)n2)cc1` returned an RP-LC retention time of 939 s.

In turn, `COC(=O)c1ccc(C2Nc3ccc(OC)cc3[C@H]3OCCC[C@@H]23)cc1` (stereo not given in full) had an RP-LC retention time of 1020 s.

Regarding `CCn1cc(S(=O)(=O)N2CC(n3cc(C(=O)N4CCOCC4)nn3)C2)cn1`, the RP-LC retention time was 632 s.

`COc1ccc(NC(=O)N2CC(c3nc(C(C)C)nn3C)C2)c(OC)c1` registered an RP-LC retention time of 667 s.

In turn, `O=C(Cc1ccccc1)N1CCCCC1c1nncn1-c1ccccc1` (stereo not given) had an RP-LC retention time of 741 s.

On to `CCc1ccc(-c2nn(C)c(=O)c3c2CCCC3)cc1S(=O)(=O)N1CCC(C(N)=O)CC1`, for which the RP-LC retention time was 736 s.

On to `CCNC(=O)N1CCCC(c2cccc(C(=O)NCc3cccc(C(F)(F)F)c3)c2)C1` (stereo not given), for which the RP-LC retention time was 900 s.

`CCN1CCN(C(=O)c2ccc(S(=O)(=O)c3ccccc3)s2)CC1` showed an RP-LC retention time of 617 s.

Consider `COc1ccc(NC(=O)N2CCCC2c2nc(-c3ccccc3OC)no2)cc1F` (stereo not given), for which the RP-LC retention time worked out at 834 s.
